Values of other authors in patent US20100004582A1, “Wide-Area Parasystemic Treatment of Skin Related Conditions” (PANTEC BIOSOLUTIONS AG, priority 2006, published 2010).

Test system: psoriasis
Details: conventional efalizumab treatment, not via porated skin

efalizumab
patients in whom treatment attenuated the disease: 22-28 % of patients
